The text below walks through data of patent publication US20220024921A1, “1,3,4-OXADIAZOLONE COMPOUND AND PHARMACEUTICAL” (NIPPON SHINYAKU CO., LTD., priority 2018, published 2022).

Structures can show the parent of a compound that is named as a salt.

Assay [1] has as its target PIM1 transgenic cells (Ba/F3) (Homo sapiens, UniProt P11309). The experiment in a line: Proliferation inhibitory effect on PIM1 transgenic cells. Conditions: proliferation inhibition, 72 hours, Cell Counting Kit-8, read-out: PIM1 IC50. The class given is cell-based, mouse. From the text: Human PIM1, 2, and 3 genes were inserted into the multi-cloning sites of retrovirus expression vectors pMYs-IRES-GFP, respectively, to prepare gene transfer vectors. Then, each gene transfer vector was introduced into packaging cells PLAT-E derived from a human fetal kidney cell line in the logarithmic growth phase, using a transfection reagent (FuGENE6, Promega Corporation). Since the culture supernatant of PLAT-E after gene transfer contained virus particles for gene transfer, the culture supernatant was collected and used as a medium for gene transfer. The medium for gene transfer was added to a plate coated with RetroNectin, and the plate was incubated to attach the virus particles to the plate. Then, a mouse pro-B cell line Ba/F3 in the logarithmic growth phase was seeded on the plate and infected with the virus to prepare PIM1, 2, or 3 transgenic cells that proliferate in a PIM 1, 2, or 3-dependent manner. The expression of PIM1, 2, or 3 protein in each cell was confirmed by Western blotting.
Each test substance was prepared to 10 mM with dimethylsulfoxide (DMSO), and diluted with DMSO so as to have concentrations of 3000, 1000, 300, 100, 30, 10, 3, and 1 μM. Moreover, each dilution was further diluted 10-fold with distilled water to prepare a test substance solution.
PIM1, 2, 3-expressing cells were seeded on a 96-well plate, and each test substance solution prepared the next day was added such that final concentrations were 10000, 3000, 1000, 300, 100, 30, 10, 3, and 1 nM. 72 hours after the addition, 10 μL of Cell Counting Kit-8 (DOJINDO LABORATORIES) was added to each well. After incubation for 1 to 4 hours, absorbance OD450 at 450 nm was measured. In addition, absorption OD650 at 650 nm as a reference wavelength was measured.
OD450-OD650 for each condition was calculated, and then the inhibition rates when OD450-OD650 of negative control (DMSO only) and OD450-OD650 of Blank (without cells) were set to 0% and 100%, respectively, were calculated. Then, non-linear regression analysis was performed for logarithmic dose and inhibition rate using a two-parameter logistic model to estimate IC50 values.
(Tetrazolium assays rely on reduction of a dye to a coloured formazan, in cell work by metabolically active cells.)

For assay [2], the target named is T1, PIM1 serine/threonine kinase (Homo sapiens, UniProt P11309).
T1 construct: purchased Carna Bioscience, Inc
T1 sequence (P11309 whole entry): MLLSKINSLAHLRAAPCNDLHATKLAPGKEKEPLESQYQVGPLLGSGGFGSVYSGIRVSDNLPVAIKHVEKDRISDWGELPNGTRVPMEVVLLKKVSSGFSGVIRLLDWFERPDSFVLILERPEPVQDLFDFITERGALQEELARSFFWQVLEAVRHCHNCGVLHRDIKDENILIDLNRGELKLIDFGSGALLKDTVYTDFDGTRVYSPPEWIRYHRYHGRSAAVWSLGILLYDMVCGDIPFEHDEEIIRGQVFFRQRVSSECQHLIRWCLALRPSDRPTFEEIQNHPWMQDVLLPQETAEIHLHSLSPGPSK
The assay is described as follows: PIM1 serine/threonine kinase inhibitory effect. Conditions: PIM1 serine/threonine kinase activity; ATP 40 μM; 30° C., 30 minutes. Format: biochemical. As for the experimental part:
Each test substance was prepared to 10 mM with dimethylsulfoxide (DMSO), and further diluted with DMSO so as to have concentrations of 1000, 300, 100, 30, 10, 3, 1, 0.3, 0.1, 0.03, 0.01, and 0.001 μM. Moreover, each dilution was further diluted 33.3-fold with an assay buffer to prepare a test substance solution. The composition of the assay buffer was 50 mM HEPES (pH 7.0), 0.02% NaN3, 0.01% Bovine Serum Albumin, 0.1 mM Orthovanadate, 1 mM Dithiothreitol, and 5 mM MgCl2.
5 μL of each test substance solution was added to 384-well plates (n=2), and then 2.5 μL of a substrate solution (substrate 3-biotin (Cisbio Bioassays SAS), final concentration in the reaction solution: 0.5 μM) and 2.5 μL of an ATP solution (in the cases of PIM1, 2, 3, the final concentrations in the reaction solutions were 40, 2, and 10 μM, respectively) were added, 5 μL of each of PIM1, 2, 3 serine/threonine kinase solutions (Carna Bioscience, Inc., the final concentrations in the reaction solutions were 0.15, 1.6, and 0.25 μg/ml, respectively) was finally added, and the mixture was reacted at 30° C. for 30 minutes. The test substance concentrations in the reaction solutions are 10000, 3000, 1000, 300, 100, 30, 10, 3, 1, 0.3, 0.1, and 0.01 nM.
Thereafter, 15 μL of each detection solution (62.5 nM Streptavidin-XL665 (Cisbio Bioassays SAS), […] STK antibody-Cryptate (Cisbio Bioassays SAS), 50 mM HEPES (pH 7.0), 0.8 M KF, 0.1% Bovine Serum Albumin, 20 mM ethylenediaminetetraacetic acid) was added to each well. After stirring, the mixture was reacted at 30° C. for 1 hour. Absorbance (OD620, OD665) at 620 and 665 nm was measured with a microplate reader (SpectraMax M5e, Molecular Devices, LLC).
Non-linear regression analysis was performed by an SAS system (SAS Institute Inc.) using the ratio (OD665/OD620) of the measured absorbance to calculate a test substance concentration (IC50) that inhibits PIM1 serine/threonine kinase activity by 50%.

PIM1 transgenic cells (Ba/F3), sequence (P11309 whole entry, stated change not applied): as the sequence (P11309 whole entry) above

With `C[C@H](Nc1cc(-c2n[nH]c(=O)o2)ccc1C(F)(F)F)C1(C)CCNCC1` [Example 144, 5-[3-{[(1S)-1-(4-methylpiperidin-4-yl)ethyl]amino}-4-(trifluoromethyl)phenyl]-1,3,4-oxadiazol-2(3H)-one hydrochloride], in assay [1], the GI50 was 64 nM. Moreover, the IC50 (in general, the midpoint of a concentration-inhibition curve) in assay [2] stood at 2.9 nM.

`CC(C)Oc1c(Cl)cc(-c2n[nH]c(=O)o2)cc1N[C@@H](C)C1CCNCC1` [Example 103, 5-(3-chloro-5-{[(1S)-1-(piperidin-4-yl)ethyl]amino}-4-[(propan-2-yl)oxy]phenyl)-1,3,4-oxadiazol-2(3H)-one hydrochloride]: the GI50 in assay [1] was 120 nM. This molecule also registered an IC50 in assay [2] of 5 nM.

For the molecule `O=c1[nH]nc(-c2ccc(C(F)(F)F)c(NC[C@H]3CCCNC3)c2)o1` [Example 53, 5-[3-({[(3S)-piperidin-3-yl]methyl}amino)-4-(trifluoromethyl)phenyl]-1,3,4-oxadiazol-2(3H)-one hydrochloride], the GI50 in assay [1] came to 1600 nM. The IC50 in assay [2] was found to be 15 nM.

Consider `CCOc1c(F)cc(-c2n[nH]c(=O)o2)cc1N[C@@H](C)[C@H]1CC[C@H](N)CC1` [Example 173, 5-[3-({(1S)-1-[(1r,4S)-4-aminocyclohexyl]ethyl}amino)-4-ethoxy-5-fluorophenyl]-1,3,4-oxadiazol-2(3H)-one dihydrochloride], for which the GI50 in assay [1] turned out to be 250 nM. Also, in assay [2], the IC50 turned out to be 10 nM.

Regarding `Cc1ccc(-c2n[nH]c(=O)o2)cc1NC[C@H]1CC[C@H](N)CC1` [Example 67, 5-[3-({[(1r,4r)-4-aminocyclohexyl]methyl}amino)-4-methylphenyl]-1,3,4-oxadiazol-2(3H)-one hydrochloride], in assay [1], the GI50 came to 610 nM. Also, the IC50 in assay [2] came to 26 nM.

Turning to `C[C@H](Nc1cc(-c2n[nH]c(=O)o2)cc(F)c1C(F)(F)F)[C@H]1C[C@@H](N)C1(C)C` [Example 164, 5-[3-({(1S)-1-[(1S,3R)-3-amino-2,2-dimethylcyclobutyl]ethyl}amino)-5-fluoro-4-(trifluoromethyl)phenyl]-1,3,4-oxadiazol-2(3H)-one hydrochloride], the GI50 in assay [1] is 25 nM. In addition, inhibition in assay [2] was half-maximal at 1.7 nM (IC50).

Take `N[C@H]1CC[C@H](CCc2cc(-c3n[nH]c(=O)o3)ccc2C(F)(F)F)CC1` [Example 27, 5-[3-{2-[(1r,4s)-4-aminocyclohexyl]ethyl}-4-(trifluoromethyl)phenyl]-1,3,4-oxadiazol-2(3H)-one hydrochloride]: the GI50 in assay [1] worked out at 200 nM. The molecule also registered a half-maximal inhibitory concentration (IC50) in assay [2] of 4.1 nM.

In the case of `CC(C)c1c(F)cc(-c2n[nH]c(=O)o2)cc1N[C@@H](C)[C@H]1CC[C@H](N)CC1` [Example 233, 5-[3-({(1S)-1-[(1r,4S)-4-aminocyclohexyl]ethyl}amino)-5-fluoro-4-(propan-2-yl)phenyl]-1,3,4-oxadiazol-2(3H)-one hydrochloride], the GI50 in assay [1] came out at 44 nM. This molecule also came in with an IC50 in assay [2] of 5.5 nM.

As for `COc1c(F)cc(-c2n[nH]c(=O)o2)cc1N[C@@H](C)[C@H]1CC[C@H](N)CC1` [Example 167, 5-[3-({(1S)-1-[(1r,4S)-4-aminocyclohexyl]ethyl}amino)-5-fluoro-4-methoxyphenyl]-1,3,4-oxadiazol-2(3H)-one hydrochloride], in assay [1], the GI50 worked out at 94 nM. Further, in assay [2], the IC50 worked out at 3.1 nM.

Consider `N[C@H]1CC[C@@H](COc2cc(-c3n[nH]c(=O)o3)ccc2Cl)CC1` [Example 243, 5-(3-{[(1s,4s)-4-aminocyclohexyl]methoxy}-4-chlorophenyl)-1,3,4-oxadiazol-2(3H)-one], for which, in assay [1], the GI50 amounted to 150 nM. In assay [2], this molecule showed an IC50 of 4.1 nM.

Take `CN[C@H]1CC[C@H]([C@H](C)Nc2cc(-c3n[nH]c(=O)o3)ccc2C(F)(F)F)CC1` [Example 189, 5-[3-({(1S)-1-[(1r,4S)-4-(methylamino)cyclohexyl]ethyl}amino)-4-(trifluoromethyl)phenyl]-1,3,4-oxadiazol-2(3H)-one hydrochloride]: the GI50 in assay [1] is 44 nM. The molecule further gave an IC50 in assay [2] of 2.2 nM.

With `O=c1[nH]nc(-c2ccc(Cl)c(NCC3CCNCC3)c2)o1` [Example 47, 5-(4-chloro-3-{[(piperidin-4-yl)methyl]amino}phenyl)-1,3,4-oxadiazol-2(3H)-one hydrochloride], in assay [1], the GI50 came out at 820 nM. In assay [2], this molecule came in with an IC50 of 7.6 nM.

With `C[C@H](Nc1cc(-c2n[nH]c(=O)o2)ccc1C(F)(F)F)C12C3C4C1C1C2C3C41N` (stereo partly drawn) [Example 186, 5-[3-({(1S)-1-[(2S,3R)-4-aminocuban-1-yl]ethyl}amino)-4-(trifluoromethyl)phenyl]-1,3,4-oxadiazol-2(3H)-one hydrochloride], the GI50 in assay [1] amounted to 2300 nM. In addition, the IC50 in assay [2] turned out to be 11 nM.

In the case of `O=c1[nH]nc(-c2ccc(C(F)(F)F)c(N[C@@H]3CCC34CCNCC4)c2)o1` [Example 46, 5-[3-{[(1R)-7-azaspiro[3.5]nonan-1-yl]amino}-4-(trifluoromethyl)phenyl]-1,3,4-oxadiazol-2(3H)-one hydrochloride], the GI50 in assay [1] turned out to be 2600 nM. Also, inhibition in assay [2] was half-maximal at 290 nM (IC50).

In the case of `CCN[C@H]1C[C@@H]([C@H](C)Nc2cc(-c3n[nH]c(=O)o3)ccc2C(F)(F)F)C1` [Example 195, 5-[3-({(1S)-1-[(1s,3R)-3-(ethylamino)cyclobutyl]ethyl}amino)-4-(trifluoromethyl)phenyl]-1,3,4-oxadiazol-2(3H)-one hydrochloride], the GI50 in assay [1] came to 140 nM. The molecule further came in with an IC50 in assay [2] of 8.1 nM.

As for `N[C@H]1CC[C@H](Nc2cc(-c3n[nH]c(=O)o3)cc(F)c2C(F)(F)F)CC1` [Example 36, 5-[3-{[(1r,4r)-4-aminocyclohexyl]amino}-5-fluoro-4-(trifluoromethyl)phenyl]-1,3,4-oxadiazol-2(3H)-one hydrochloride], the GI50 in assay [1] was found to be 570 nM. Further, the IC50 in assay [2] came out at 3.1 nM.

In the case of `CC(C)Oc1c(F)cc(-c2n[nH]c(=O)o2)cc1N[C@@H](C)[C@H]1CC[C@H](N)CC1` [Example 175, 5-{3-({(1S)-1-[(1r,4S)-4-aminocyclohexyl]ethyl}amino)-5-fluoro-4-[(propan-2-yl)oxy]phenyl}-1,3,4-oxadiazol-2(3H)-one dihydrochloride], the GI50 in assay [1] was 320 nM. For the same molecule, the IC50 in assay [2] was 17 nM.

Turning to `Cc1cc(Cl)c(N[C@@H](C)C2CCNCC2)cc1-c1n[nH]c(=O)o1` [Example 94, 5-(4-chloro-2-methyl-5-{[(1S)-1-(piperidin-4-yl)ethyl]amino}phenyl)-1,3,4-oxadiazol-2(3H)-one hydrochloride], the GI50 in assay [1] came out at 140 nM. In assay [2], this molecule displayed an IC50 of 8.4 nM.

Consider `C[C@H](Nc1cc(-c2n[nH]c(=O)o2)ccc1Cl)[C@H]1C[C@@H](N)C1(C)C` [Example 168, 5-[3-({(1S)-1-[(1S,3R)-3-amino-2,2-dimethylcyclobutyl]ethyl}amino)-4-chlorophenyl]-1,3,4-oxadiazol-2(3H)-one], for which the GI50 in assay [1] amounted to 110 nM. The molecule further had an IC50 in assay [2] of 10 nM.

On to `NCCC1CCN(c2cc(-c3n[nH]c(=O)o3)ccc2C(F)(F)F)CC1` [Example 10, 5-{3-[4-(2-aminoethyl)piperidin-1-yl]-4-(trifluoromethyl)phenyl}-1,3,4-oxadiazol-2(3H)-one hydrochloride], for which, in assay [1], the GI50 stood at 630 nM. Further, in assay [2], the IC50 was 6.6 nM.
